Data reported in PubChem BioAssay AID330 (DTP/NCI, 2004).
Several values for one entry are separate records, joined by “and”; a condition that tells them apart may be missing. Equal values may be shown once. Toxic doses and inconclusive results are not listed. The calls were made as follows: active = survival T/C of 150% or more; inactive = T/C below 125% in these data. Peptide text beside a SMILES is read from it.

Tested on: P388 leukemia ip, CD2F1 mice, survival T/C
Assay: NCI In Vivo Anticancer Drug Screen. Data for tumor model P388 Leukemia (intraperitoneal) in CD2F1 (CDF1) mice
Details: endpoint: median survival time, higher = longer survival
How it was run: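 Mice carrying the transplanted tumor received test compound or vehicle. Survival was recorded in each group, and the value is the treated-group measurement divided by that of the vehicle-treated control group.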

[1] = dose: 100.0 mg/kg/injection, schedule: Q01DX009 (ip), vehicle: saline with Tween-80
[2] = dose: 200.0 mg/kg/injection, schedule: Q01DX009 (ip), vehicle: saline with Tween-80
[3] = dose: 60.0 mg/kg/injection, schedule: Q01DX005 (ip), vehicle: Klucel (hydroxypropylcellulose) (HPC)
[4] = dose: 60.0 mg/kg/injection, schedule: Q01DX005 (ip), vehicle: saline
[5] = dose: 120.0 mg/kg/injection, schedule: Q01DX005 (ip), vehicle: Klucel (hydroxypropylcellulose) (HPC)
[6] = dose: 120.0 mg/kg/injection, schedule: Q01DX005 (ip), vehicle: saline
[7] = dose: 240.0 mg/kg/injection, schedule: Q01DX005 (ip), vehicle: Klucel (hydroxypropylcellulose) (HPC)
[8] = dose: 240.0 mg/kg/injection, schedule: Q01DX005 (ip), vehicle: saline
[9] = dose: 50.0 mg/kg/injection, schedule: Q01DX005 (ip), vehicle: saline with Tween-80
[10] = dose: 100.0 mg/kg/injection, schedule: Q01DX005 (ip), vehicle: saline with Tween-80
[11] = dose: 12.5 mg/kg/injection, schedule: Q01DX005 (ip), vehicle: saline with Tween-80
[12] = dose: 25.0 mg/kg/injection, schedule: Q01DX005 (ip), vehicle: saline with Tween-80
[13] = dose: 50.0 mg/kg/injection, schedule: Q01DX005 (ip), vehicle: Klucel (hydroxypropylcellulose) (HPC)
[14] = dose: 100.0 mg/kg/injection, schedule: Q01DX005 (ip), vehicle: Klucel (hydroxypropylcellulose) (HPC)
[15] = dose: 200.0 mg/kg/injection, schedule: Q01DX005 (ip), vehicle: Klucel (hydroxypropylcellulose) (HPC)
[16] = dose: 25.0 mg/kg/injection, schedule: Q01DX009 (ip), vehicle: Klucel (hydroxypropylcellulose) (HPC)
[17] = dose: 200.0 mg/kg/injection, schedule: Q01DX005 (ip), vehicle: saline with Tween-80

Measured: T/C

COc1cc(/C=N/n2cnnc2)cc(OC)c1OC
inactive: dose: 100.0 mg/kg/injection, schedule: Q01DX009 (ip), vehicle: saline 100 % of control | dose: 200.0 mg/kg/injection, schedule: Q01DX009 (ip), vehicle: saline 108 % of control | dose: 400.0 mg/kg/injection, schedule: Q01DX009 (ip), vehicle: saline 100 % of control

CC(C)c1cc(C(F)(F)F)nc(NNc2nc(C(C)C)cc(C(F)(F)F)n2)n1
inactive: dose: 50.0 mg/kg/injection, schedule: Q01DX009 (ip), vehicle: saline with Tween-80 104 % of control | [1] 104 % of control | [2] 92 % of control

O=C(/C=C/c1ccccc1)c1cc2c(cc1O)OCO2
inactive: dose: 60.0 mg/kg/injection, schedule: Q01DX005 (ip), vehicle: saline with Tween-80 103 % of control | dose: 120.0 mg/kg/injection, schedule: Q01DX005 (ip), vehicle: saline with Tween-80 107 % of control | dose: 240.0 mg/kg/injection, schedule: Q01DX005 (ip), vehicle: saline with Tween-80 100 % of control

Fc1ccc(NC(=S)SCc2ccco2)cc1
inactive: dose: 50.0 mg/kg/injection, schedule: Q01DX009 (ip), vehicle: suspension in saline 101 % of control | dose: 100.0 mg/kg/injection, schedule: Q01DX009 (ip), vehicle: suspension in saline 98 % of control | dose: 200.0 mg/kg/injection, schedule: Q01DX009 (ip), vehicle: suspension in saline 92 % of control

NS(=O)(=O)c1ccc(N=NC2C(=O)N(c3ccccc3)C(=S)N(c3ccccc3)C2=O)cc1
inactive: [3] 100 % of control | [4] 106 % of control | [5] 100 % of control | [6] 95 % of control | [7] 91 % of control | [8] 92 % of control

O=C1OCCC1C(O)c1ccccc1 (stereo not given)
inactive: dose: 25.0 mg/kg/injection, schedule: Q01DX009 (ip), vehicle: other 110 % of control | dose: 50.0 mg/kg/injection, schedule: Q01DX009 (ip), vehicle: other 102 % of control | dose: 100.0 mg/kg/injection, schedule: Q01DX009 (ip), vehicle: other 110 % of control | dose: 200.0 mg/kg/injection, schedule: Q01DX009 (ip), vehicle: other 107 % of control | dose: 400.0 mg/kg/injection, schedule: Q01DX009 (ip), vehicle: other 111 % of control

CCOn1nnc2c([N+](=O)[O-])cccc21
inactive: [9] 96 % of control | [10] 92 % of control

CC(C)c1ccc(C[n+]2ccccc2/C=N/O)cc1
inactive: [11] 100 % of control | [12] 95 % of control | [9] 103 % of control

CCOC(=O)CCN(CCC(=O)OCC)c1ccccn1
inactive: [13] 105 % of control | [14] 99 % of control | [15] 101 % of control

COc1cc2c(cc1C(C)c1ccc(OC(C)=O)cc1)OCO2 (stereo not given)
inactive: dose: 25.0 mg/kg/injection, schedule: Q01DX005 (ip), vehicle: Klucel (hydroxypropylcellulose) (HPC) 103 % of control | [13] 103 % of control | [14] 99 % of control | [15] 101 % of control

CC(=O)Nc1c(C)ncn(-c2ccccc2)c1=O
inactive: [4] 95 % of control | [6] 100 % of control | [8] 101 % of control

COC(=O)C1c2ccccc2CC(=O)N1N (stereo not given)
inactive: dose: 6.25 mg/kg/injection, schedule: Q01DX009 (ip), vehicle: Klucel (hydroxypropylcellulose) (HPC) 102 % of control | dose: 12.5 mg/kg/injection, schedule: Q01DX009 (ip), vehicle: Klucel (hydroxypropylcellulose) (HPC) 100 % of control | [16] 100 % of control

CCCCCCCCCCCCCCCC[N+](C)(C)CCBr
inactive: dose: 3.13 mg/kg/injection, schedule: Q01DX009 (ip), vehicle: saline with Tween-80 109 % of control and 100 % of control | dose: 6.25 mg/kg/injection, schedule: Q01DX009 (ip), vehicle: saline with Tween-80 122 % of control and 93 % of control and 103 % of control | dose: 12.5 mg/kg/injection, schedule: Q01DX009 (ip), vehicle: saline with Tween-80 115 % of control [middle of 4 runs]

O=C1CN(CCN2CCOCC2)CC(=O)N2Cc3ccccc3CN12
inactive: [9] 108 % of control | [10] 98 % of control | [17] 101 % of control

NC(N)=N/N=C/c1c2ccccc2cc2ccccc12
inactive: dose: 6.25 mg/kg/injection, schedule: Q01DX005 (ip), vehicle: saline with Tween-80 100 % of control and 101 % of control | [11] 107 % of control and 109 % of control and 121 % of control | [12] 104 % of control and 113 % of control and 121 % of control

N#CC1CCCC(CCc2ccccc2)(c2ccccc2)C1=N (stereo not given)
inactive: dose: 50.0 mg/kg/injection, schedule: Q01DX001 (ip), vehicle: Klucel (hydroxypropylcellulose) (HPC) 100 % of control | dose: 100.0 mg/kg/injection, schedule: Q01DX001 (ip), vehicle: Klucel (hydroxypropylcellulose) (HPC) 99 % of control and 101 % of control | dose: 200.0 mg/kg/injection, schedule: Q01DX001 (ip), vehicle: Klucel (hydroxypropylcellulose) (HPC) 91 % of control | dose: 400.0 mg/kg/injection, schedule: Q01DX001 (ip), vehicle: Klucel (hydroxypropylcellulose) (HPC) 102 % of control and 92 % of control

CCC(C)C(NC(=O)C(CCCCN)N(C(=O)OCc1ccccc1)C(=O)OCc1ccccc1)C(=O)O (stereo not given)
inactive: [9] 99 % of control | [10] 90 % of control | [17] 94 % of control

CCCCCCCCCCCCCCCCCCOC(=O)CCN
inactive: [9] 101 % of control | [10] 109 % of control | [17] 113 % of control

O=C1OC(c2ccccc2)CC1N1CCOCC1 (stereo not given)
inactive: [1] 100 % of control | dose: 100.0 mg/kg/injection, schedule: Q04DX003 (ip), vehicle: saline sonified 100 % of control | [2] 100 % of control | dose: 400.0 mg/kg/injection, schedule: Q01DX009 (ip), vehicle: saline with Tween-80 100 % of control | dose: 400.0 mg/kg/injection, schedule: Q04DX003 (ip), vehicle: saline sonified 89 % of control

COc1ccc(-c2cscc2N)cc1
inactive: [3] 114 % of control | [5] 118 % of control | [7] 97 % of control

COc1cccc2c1C(=O)c1c(O)c3c(c(O)c1C2=O)CC(O)(C(=O)CBr)CC3OC1CC(OC(C)=O)C(OC(C)=O)C(C)O1 (stereo not given)
inactive: dose: 3.13 mg/kg/injection, schedule: Q04DX003 (ip), vehicle: distilled water + Tween-80 108 % of control | dose: 6.25 mg/kg/injection, schedule: Q04DX003 (ip), vehicle: distilled water + Tween-80 98 % of control | dose: 12.5 mg/kg/injection, schedule: Q04DX003 (ip), vehicle: distilled water + Tween-80 106 % of control | dose: 25.0 mg/kg/injection, schedule: Q04DX003 (ip), vehicle: distilled water + Tween-80 109 % of control | dose: 50.0 mg/kg/injection, schedule: Q04DX003 (ip), vehicle: distilled water + Tween-80 105 % of control

Nc1ccn(C2OC(CO)C3OP(=O)(O)OC32)c(=O)n1 (stereo not given)
inactive: dose: 25.0 mg/kg/injection, schedule: Q01DX005 (ip), vehicle: water 101 % of control | dose: 50.0 mg/kg/injection, schedule: Q01DX005 (ip), vehicle: water 100 % of control | dose: 100.0 mg/kg/injection, schedule: Q01DX005 (ip), vehicle: water 101 % of control | dose: 200.0 mg/kg/injection, schedule: Q01DX005 (ip), vehicle: water 101 % of control | dose: 400.0 mg/kg/injection, schedule: Q01DX005 (ip), vehicle: water 100 % of control

COc1cc2c(O)c3c(c(-c4ccc5c(c4)OCO5)c2cc1OC)C(=O)OC3
inactive: [16] 91 % of control | dose: 50.0 mg/kg/injection, schedule: Q01DX009 (ip), vehicle: Klucel (hydroxypropylcellulose) (HPC) 100 % of control | dose: 100.0 mg/kg/injection, schedule: Q01DX009 (ip), vehicle: Klucel (hydroxypropylcellulose) (HPC) 100 % of control | dose: 200.0 mg/kg/injection, schedule: Q01DX009 (ip), vehicle: Klucel (hydroxypropylcellulose) (HPC) 117 % of control

NC(CCC(=O)O)C(=O)NC(CCC(=O)O)C(=O)O (stereo not drawn) (H-Glu-Glu-OH; configuration not given here)
inactive: dose: 50.0 mg/kg/injection, schedule: Q01DX005 (ip), vehicle: saline 97 % of control | dose: 100.0 mg/kg/injection, schedule: Q01DX005 (ip), vehicle: saline 103 % of control | dose: 200.0 mg/kg/injection, schedule: Q01DX005 (ip), vehicle: saline 104 % of control
